Assay: Test for the stabilizing activity of Vitamin E on NADH (acid degradation in water at pH 4, 32° C.)
Assay type: physicochemical
Settings: within 20 minutes
Experimental: TEST FOR THE STABILIZING ACTIVITY OF VITAMIN E ON NADH Two beakers are prepared containing 50 g of water at a pH 4 and a constant temperature of 32° C. 10 mg of NADH are dissolved in the first beaker and agitate. The effect of the acidity deactivates the NADH, which splits up into NAD+H. Within 20 minutes, 9.5 mg of NADH are split-up, while 0.5 mg remain unchanged. In a second beaker […] of NADH and 5 mg of Vitamin E are dissolved. The effect of the acidity deactivates the NADH, which splits up into NAD+H. Within 20 minutes, 7.5 mg of NADH are split-up, while 2.5 mg of NADH remain unchanged. The parameters of pH 4 and 32° C. for a duration of 20 minutes has been chosen as the food supplement is to be assumed in the morning on an empty stomach, 30 minutes before breakfast. This leads the tablets to easily pass the physiological stomach barrier in 20 minutes, so as reach the first portion of the intestine, where it can be absorbed and enter the blood circulating system.

[1] = 20 mg NADH with 5 mg Vitamin E in 50 g water

For NC(=O)C1=CN([C@@H]2O[C@H](COP(=O)(O)OP(=O)(O)OC[C@H]3O[C@@H](n4cnc5c(N)ncnc54)[C@H](O)[C@@H]3O)[C@@H](O)[C@H]2O)C=CC1 [NADH, nicotinamide adenine dinucleotide in a reduced form], the NADH remaining unchanged (10 mg NADH alone in 50 g water) was 0.5 mg, the “NADH split-up (into NAD+H)” value (10 mg NADH alone in 50 g water) was 9.5 mg and the NADH remaining unchanged [1] was 2.5 mg. For the same compound, the “NADH split-up (into NAD+H)” value [1] was 7.5 mg.

From patent US20020009482A1, “Proenergetic food supplement based on NADH, octocosanol and vitamin E” (priority 2000, published 2002)
